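Values below derive from 48-hour exposures of cells grown in 96-well plates, with endpoints linearly interpolated between the two concentrations bracketing the appropriate inhibition level. The concentration for full growth arrest is given as TGI.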
What was measured:
Assay in all cases: NCI tumour cell line growth inhibition, 48 h
[1] = tested on: SN12K1 renal
[2] = tested on: P388/ADR leukemia
[3] = tested on: KM20L2 colon
[4] = tested on: P388 leukemia
[5] = tested on: M19-MEL melanoma
[6] = tested on: LXFL 529 NSCLC

Compound	TGI [1]	TGI [2]	TGI [3]	TGI [4]	TGI [5]	TGI [6]
Cc1ccc(C#CS(=O)(=O)C(F)(F)F)cc1	> 100 µM	> 100 µM	> 100 µM	> 100 µM	> 100 µM	–
O=C(c1ccccc1O)c1cc(-c2ncc3c(=O)c4ccccc4oc3n2)c(-c2ccccc2O)[nH]c1=O	35.1 µM	61 µM	–	47.8 µM	> 68.2 µM	–
COc1ccc([C@H]2c3cc4c(cc3OC(O)(CO)[C@H]2C(=O)O)OCO4)c(OC)c1 (some centres not stated) (tested in a mixture with another compound)	–	–	> 100 µM	–	> 100 µM	> 100 µM

Source: PubChem BioAssay (NCI)
